ChEMBL document CHEMBL1201862, “PubChem BioAssay data set” (2004)
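The compound was tested at five concentrations on cells cultured in 96-well plates, with a 48-hour exposure period. Abbreviation: GI50, concentration required for 50% inhibition of growth.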 Active and inactive are the calls of the source. Rule as the data show it: active = GI50 up to about 1.1 µM and inactive = higher.

What was measured:
Test in all cases: inhibition of tumour cell growth, NCI panel, 48 h
COLO 205 = system: COLO 205
SK-MEL-5 = system: SK-MEL-5
TK-10 = system: TK-10
CCRF-CEM = system: CCRF-CEM
NCI-H460 = system: NCI-H460
UACC-257 = system: UACC-257
Hs-578T = system: Hs-578T
MOLT-4 = system: MOLT-4
SF-539 = system: SF-539
UO-31 = system: UO-31
SK-MEL-28 = system: SK-MEL-28
SNB-75 = system: SNB-75
NCI/ADR-RES = system: NCI/ADR-RES
SK-OV-3 = system: SK-OV-3
MDA-MB-435 = system: MDA-MB-435
SNB-19 = system: SNB-19
KM12 = system: KM12
PC-3 = system: PC-3
SR = system: SR
RPMI-8226 = system: RPMI-8226

Row | Compound | GI50 (COLO 205) | GI50 (SK-MEL-5) | GI50 (TK-10) | GI50 (CCRF-CEM) | GI50 (NCI-H460) | GI50 (UACC-257) | GI50 (Hs-578T) | GI50 (MOLT-4) | GI50 (SF-539) | GI50 (UO-31) | GI50 (SK-MEL-28) | GI50 (SNB-75) | GI50 (NCI/ADR-RES) | GI50 (SK-OV-3) | GI50 (MDA-MB-435) | GI50 (SNB-19) | GI50 (KM12) | GI50 (PC-3) | GI50 (SR) | GI50 (RPMI-8226)
1 | COc1ccccc1/C=C1/Sc2scc(CC(=O)Nc3ccccc3)[n+]2C1=O | 20.4 µM (inactive) | 16 µM (inactive) | 25.2 µM (inactive) | 17.7 µM (inactive) | 29.5 µM (inactive) | 25.1 µM (inactive) | 40.6 µM (inactive) | 17.2 µM (inactive) | 36.3 µM (inactive) | 17.9 µM (inactive) | 22.4 µM (inactive) | 26.9 µM (inactive) | 19.8 µM (inactive) | 27.5 µM (inactive) | 28.4 µM (inactive) | 29.1 µM (inactive) | 19.7 µM (inactive) | 26 µM (inactive) |  | 
2 | O=C1/C(=N/c2ccc(Nc3ccccc3)cc2)Oc2ccccc21 | 1.65 µM (inactive) | 4.68 µM (inactive) | 3.84 µM (inactive) | 1.86 µM (inactive) | 5.31 µM (inactive) | 2.42 µM (inactive) |  | 2.13 µM (inactive) | 3.27 µM (inactive) | 2.35 µM (inactive) | 4.19 µM (inactive) | 2.15 µM (inactive) | 1.9 µM (inactive) | 5.98 µM (inactive) | 1.82 µM (inactive) | 2.36 µM (inactive) | 2.14 µM (inactive) | 2.81 µM (inactive) | 2.15 µM (inactive) | 
3 | COc1cc(C2c3cc4c(cc3OC(Nc3ccccc3)C2C)OCO4)cc(OC)c1O (stereo unspecified) | 11.3 µM (inactive) | 3.08 µM (inactive) | 3.49 µM (inactive) |  |  | 7.73 µM (inactive) |  | 0.836 µM (active) | 2.84 µM (inactive) | 8.38 µM (inactive) | 5.57 µM (inactive) | 1.63 µM (inactive) | 2.38 µM (inactive) |  | 0.394 µM (active) | 10.6 µM (inactive) | 4.41 µM (inactive) | 2.8 µM (inactive) |  | 3.69 µM (inactive)
4 | COC(=O)CCC(NC(=S)N/N=C(\C)c1cnc2ccccc2n1)C(=O)OC (stereo unspecified) | 2.55 µM (inactive) | 21.2 µM (inactive) | > 100 µM (inactive) | 3.29 µM (inactive) | 45.9 µM (inactive) | 49.5 µM (inactive) |  | 15.6 µM (inactive) | 41.8 µM (inactive) | 27.4 µM (inactive) | 40.9 µM (inactive) | 47.4 µM (inactive) |  | 76.9 µM (inactive) |  | > 100 µM (inactive) | 26 µM (inactive) |  | 15.1 µM (inactive) | 11.1 µM (inactive)
5 | CCCC[S+]([O-])CCC(N)C(=O)O (stereo unspecified) | > 100 µM (inactive) | > 100 µM (inactive) | > 100 µM (inactive) | > 100 µM (inactive) | > 100 µM (inactive) | > 100 µM (inactive) | > 100 µM (inactive) | > 100 µM (inactive) | > 100 µM (inactive) | > 100 µM (inactive) | > 100 µM (inactive) | > 100 µM (inactive) | > 100 µM (inactive) | > 100 µM (inactive) |  | > 100 µM (inactive) | > 100 µM (inactive) | > 100 µM (inactive) | > 100 µM (inactive) | 
6 | CCCN1CC=CCC1 | > 100 µM (inactive) | > 100 µM (inactive) | > 100 µM (inactive) | 2.09 µM (inactive) | > 100 µM (inactive) | > 100 µM (inactive) |  | > 100 µM (inactive) | > 100 µM (inactive) | > 100 µM (inactive) | > 100 µM (inactive) | > 100 µM (inactive) |  | > 100 µM (inactive) |  | > 100 µM (inactive) | > 100 µM (inactive) |  | > 100 µM (inactive) | > 100 µM (inactive)
7 | C/C=C(\C)C(=O)O[C@@H]1CC(C)(C)CC2C3=CCC4[C@]56CC[C@](O)(OC5)C(C)(C)C6CC[C@@]4(C)C3(C)CC[C@]21C(=O)O (stereo partly specified) | 83.9 µM (inactive) | > 100 µM (inactive) | > 100 µM (inactive) | > 100 µM (inactive) | 78.2 µM (inactive) | > 100 µM (inactive) | > 100 µM (inactive) | > 100 µM (inactive) | > 100 µM (inactive) |  | > 100 µM (inactive) |  | > 100 µM (inactive) | > 100 µM (inactive) | > 100 µM (inactive) | > 100 µM (inactive) | 82.4 µM (inactive) | 39.3 µM (inactive) |  | 87.9 µM (inactive)
8 | Nc1ccc(-c2nc3ccccc3s2)cc1C(F)(F)F | 18.1 µM (inactive) | 15.5 µM (inactive) | 13.1 µM (inactive) | 21.1 µM (inactive) |  | 15.6 µM (inactive) | 20 µM (inactive) | 19.9 µM (inactive) | 18.7 µM (inactive) | 14.7 µM (inactive) | 17.3 µM (inactive) | 14.5 µM (inactive) | 17.7 µM (inactive) | 16.6 µM (inactive) | 16.5 µM (inactive) | 17.4 µM (inactive) | 16.1 µM (inactive) | 15.7 µM (inactive) |  | 16.5 µM (inactive)
